Assay results as given in patent publication US20170224688A1, “Methods of Using BTK Inhibitors to Treat Dermatoses” (Acerta Pharma B.V., priority 2016, published 2017).

Assays:
[1] = tested on: signals through the B cell receptor; experiment: In vitro potency in whole blood: CD69 on CD19+ B cells after anti-human IgD; type: cell-based; conditions: blood of four healthy donors, 2 h with compound, anti-human IgD 10 μg/mL 18 h, flow cytometry, read-out: EC50, inhibition of CD69 on gated CD19+ B cells in whole blood
Protocol: Blood from four healthy donors was incubated for 2 hours with the compounds shown over a concentration range, and then stimulated with anti-human IgD [10 μg/mL] for 18 hours. The mean fluorescent intensity (MFI) of CD69 (and CD86, data not shown) on gated CD19+ B cells was measured by flow cytometry.

hematologic malignancies = conditions: cited from earlier work
psoriasis [2] = conditions: patients treated for malignancies; cited from earlier work
CYP3A4 = CYP3A4 (Homo sapiens, UniProt P08684); experiment: Loss of parent drug as catalyzed by CYPs; type: in vitro ADME; conditions: in vitro
psoriasis [3] = experiment: Clinical observation of psoriasis in CLL patients on study drug; type: in vivo, human
Source text: (§1) Clinical studies have shown that targeting the BCR signaling pathway by inhibiting BTK produces significant clinical benefit in patients with various types of leukemias and lymphomas.
The secondary objective of the clinical study is to evaluate tumor responses in patients treated with Formula (II).
The study scheme is a sequential cohort escalation. Each cohort consists of six subjects. The sample size of the study is 24 to 36 subjects, depending on dose escalation into subsequent cohorts. […] The dose level for Cohort 6 will be determined based on the safety and efficacy of Cohorts 1 to 5, and will not exceed 900 mg/day. Escalation will end with either the MTD cohort or three levels above full BTK occupancy, whichever is observed first. An additional arm of the study will explore 100 mg BID dosing.
The color of the capsules is Swedish orange. The route of administration is oral (per os, or PO). The dose regimen is once daily or twice daily, as defined by the cohort, on an empty stomach (defined as no food 2 hours before and 30 minutes after dosing).
(§2) Subject 1 in the clinical study of Example 12 is a CLL patient with a history of psoriatic skin disease. Subject 1 had psoriasis, without involvement of joints, and with diffuse plaques on their trunk and extremities. Their psoriasis was severe, with ˜30% body surface area (BSA) affected (>10% BSA is considered severe disease). They were treated over time with several systemic therapies including etanercept, adalimumab, and a 2010 clinical study of an experimental agent.
When treatment with Formula (2) was initiated, Subject 1's skin symptoms started to improve rapidly. […] By Cycle 10 (10 months on Formula (2)), their skin was clear. […] The only remainder was some scaling in the same areas that were once affected by psoriasis lesions.
Subject 2 was enrolled in a clinical study similar to that described above, and also experienced resolution of moderate-to-severe plaque psoriasis (a “florid” case) while on treatment with Formula (2). The subject's disease history included extensive body surface area involvement, mainly on the back and thighs, for most of their adult life.

[4] = Oral bioavailability (preclinical characteristics); conditions: in vivo
Source text: as §1

EGFR = EGFR (Homo sapiens, UniProt P00533); experiment: EGF-induced EGFR phosphorylation in A431 cells (phosphoflow cytometry); conditions: at 10 μM, A431 human epidermoid cancer cell line
CYP enzymes = experiment: Nonclinical CYP interaction studies; type: in vitro ADME
hepatocytes = experiment: In vitro metabolism in hepatocytes with 14C-labeled drug; type: in vitro ADME, mouse, rat, dog, rabbit, monkey, and human
[5] = tested on: BCR activation markers CD69 and CD86; experiment: In vivo potency: BCR activation markers after oral gavage; conditions: mice gavaged, sacrificed 3 h post-dose, BCR stimulated with IgM, flow cytometry (FIG. 1)
Protocol: Mice were gavaged at increasing drug concentration and sacrificed at one time point (3 h post-dose). BCR is stimulated with IgM and the expression of activation markers CD69 and CD86 are monitored by flow cytometry to determine EC50's.
CD86 and CD69 are cell surface proteins that are BCR activation markers. […] BCR was stimulated with IgM and the expression of activation marker CD69 and CD86 are monitored by flow cytometry and to determine EC50 values.

[6] = Glutathione binding and depletion in vitro; type: in vitro ADME
[7] = Preliminary evaluation of metabolism in plasma, bile, and urine; type: in vivo; conditions: rats, dogs, monkeys; preliminary evaluations
[8] = Study of respiratory function (GLP safety pharmacology); conditions: rats, doses through 300 mg/kg (highest dose level)
psoriasis [9] = experiment: Treatment history of Subject 1's psoriasis; type: in vivo, human; conditions: Subject 1, before enrolling in the clinical study
Protocol: as §2

Sequence of CYP3A4 (P08684 whole entry, species assumed): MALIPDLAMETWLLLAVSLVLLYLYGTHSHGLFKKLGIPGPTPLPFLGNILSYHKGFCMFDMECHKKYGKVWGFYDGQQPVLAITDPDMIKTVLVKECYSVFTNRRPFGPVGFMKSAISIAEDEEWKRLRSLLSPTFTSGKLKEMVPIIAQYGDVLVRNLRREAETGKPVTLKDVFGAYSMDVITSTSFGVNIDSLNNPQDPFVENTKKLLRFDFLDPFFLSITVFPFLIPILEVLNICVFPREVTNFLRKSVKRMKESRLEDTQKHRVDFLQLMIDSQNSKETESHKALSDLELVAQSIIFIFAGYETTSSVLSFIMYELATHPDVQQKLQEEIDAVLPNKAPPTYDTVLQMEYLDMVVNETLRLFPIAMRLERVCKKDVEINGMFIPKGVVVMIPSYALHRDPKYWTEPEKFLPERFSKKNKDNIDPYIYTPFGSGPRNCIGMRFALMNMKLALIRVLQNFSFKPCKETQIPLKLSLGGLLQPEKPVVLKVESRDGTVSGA
Sequence of EGFR (P00533 25-1210): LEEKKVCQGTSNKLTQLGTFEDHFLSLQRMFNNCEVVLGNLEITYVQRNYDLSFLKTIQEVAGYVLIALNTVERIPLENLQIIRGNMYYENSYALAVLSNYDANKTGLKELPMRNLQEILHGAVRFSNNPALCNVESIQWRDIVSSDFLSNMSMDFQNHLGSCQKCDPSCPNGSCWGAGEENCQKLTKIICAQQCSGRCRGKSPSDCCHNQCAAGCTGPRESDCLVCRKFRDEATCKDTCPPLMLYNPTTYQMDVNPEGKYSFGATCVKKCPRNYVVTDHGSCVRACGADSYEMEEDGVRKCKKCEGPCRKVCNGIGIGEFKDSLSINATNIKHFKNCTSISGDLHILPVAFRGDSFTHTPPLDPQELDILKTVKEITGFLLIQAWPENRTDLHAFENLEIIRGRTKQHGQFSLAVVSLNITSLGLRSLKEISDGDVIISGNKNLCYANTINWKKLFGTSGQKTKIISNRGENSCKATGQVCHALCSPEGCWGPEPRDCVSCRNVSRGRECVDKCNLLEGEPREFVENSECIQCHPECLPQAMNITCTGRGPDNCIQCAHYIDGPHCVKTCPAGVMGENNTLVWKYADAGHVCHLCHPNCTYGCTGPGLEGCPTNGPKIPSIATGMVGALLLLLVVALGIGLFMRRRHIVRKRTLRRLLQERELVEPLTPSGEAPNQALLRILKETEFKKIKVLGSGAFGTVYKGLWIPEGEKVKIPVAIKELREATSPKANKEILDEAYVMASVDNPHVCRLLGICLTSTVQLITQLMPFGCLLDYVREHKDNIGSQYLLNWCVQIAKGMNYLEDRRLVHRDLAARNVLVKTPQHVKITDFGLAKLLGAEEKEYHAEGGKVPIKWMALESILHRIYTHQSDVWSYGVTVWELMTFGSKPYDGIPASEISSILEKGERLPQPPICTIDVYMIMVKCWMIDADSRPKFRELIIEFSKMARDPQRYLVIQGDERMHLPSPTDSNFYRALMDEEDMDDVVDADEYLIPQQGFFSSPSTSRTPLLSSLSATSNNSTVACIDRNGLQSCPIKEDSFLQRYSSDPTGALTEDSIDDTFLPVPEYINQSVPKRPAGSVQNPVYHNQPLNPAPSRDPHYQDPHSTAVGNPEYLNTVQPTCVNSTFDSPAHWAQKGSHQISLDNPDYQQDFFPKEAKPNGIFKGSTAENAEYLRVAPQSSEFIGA

Compound: C=CC(=O)N1CCC[C@@H](n2nc(-c3ccc(Oc4ccccc4)cc3)c3c(N)ncnc32)C1 [Ibrutinib, 1-[(3R)-3-[4-amino-3-(4-phenoxyphenyl)-1H-pyrazolo[3,4-d]pyrimidin-1-yl]piperidin-1-yl]prop-2-en-1-one]
- EC50 [1]: 6.1 nM
- antitumor activity (hematologic malignancies; subjects with heavily pretreated non-Hodgkin lymphoma): substantial antitumor activity
- maximum tolerated dose (MTD) (hematologic malignancies; within the tested dose range (through 840 mg)): No maximum tolerated dose (MTD) was apparent

Compound: Cc1nc(Nc2ncc(C(=O)Nc3c(C)cccc3Cl)s2)cc(N2CCN(CCO)CC2)n1 [Dasatinib]
- effect on psoriasis / skin (psoriasis [2]): has not been reported to improve psoriasis

Compound: CC#CC(=O)N1CCC[C@H]1c1nc(-c2ccc(C(=O)Nc3ccccn3)cc2)c2c(N)nccn12 [Formula (II), (S)-4-(8-amino-3-(1-(but-2-ynoyl)pyrrolidin-2-yl)imidazo[1,5-a]pyrazin-1-yl)-N-(pyridin-2-yl)benzamide]
- metabolizing CYP (loss of parent drug) (CYP3A4): metabolized by CYP3A4
- EC50 [1]: 8.2 nM
- psoriasis skin symptoms, first month of therapy (psoriasis [3]; Subject 1, CLL patient with severe psoriasis (~30% BSA), oral): some improvement
- psoriasis, first 6 months of treatment (psoriasis [3]; Subject 1, oral): mostly resolved
- skin status by Cycle 10 (10 months) (psoriasis [3]; Subject 1, oral): clear
- moderate-to-severe plaque psoriasis after start of treatment (psoriasis [3]; Subject 2, similar clinical study): cleared quickly
- oral bioavailability [4]: significant oral bioavailability
- inhibition of in vitro EGFR phosphorylation (EGFR): no inhibition
- drug-drug interaction potential through CYP enzymes (CYP enzymes): very unlikely to cause clinical drug-drug interactions
- unique human metabolite (hepatocytes; hepatocytes of six species): No unique human metabolite was identified
- metabolites in hepatocytes (hepatocytes; mouse, rat, dog, rabbit, monkey, human hepatocytes, 14C-labeled drug): two mono-oxidized metabolites and a glutathione conjugate
- in vivo potency at inhibiting expression of activation markers CD69 and CD86 [5]: more potent at inhibiting expression of activation makers than ibrutinib
- glutathione binding and depletion [6]: binds to glutathione but does not deplete glutathione
- metabolic processes in plasma, bile, and urine [7]: oxidation, glutathione binding, and hydrolysis
- respiratory function [8]: no treatment-related adverse effects

Compound: Cc1ccc(NC(=O)c2ccc(CN3CCN(C)CC3)cc2)cc1Nc1nccc(-c2cccnc2)n1 [imatinib]
- effect on psoriasis / skin (psoriasis [2]): may cause worsening of psoriasis

Compound: Cc1ccc(C(=O)Nc2ccc(CN3CCN(C)CC3)c(C(F)(F)F)c2)cc1C#Cc1cnc2cccnn12 [Ponatinib]
- effect on psoriasis / skin (psoriasis [2]): causes an extreme degree of skin drying and induces an almost psoriasis-like disease

Compound: etanercept
- response of psoriasis to earlier therapy (psoriasis [9]): initially responded

Compound: C=CC(=O)Nc1cccc(Nc2nc(Nc3ccc(OCCOC)cc3)ncc2F)c1 [CC-292, N-(3-((5-fluoro-2-((4-(2-methoxyethoxy)phenyl)amino)pyrimidin-4-yl)amino)phenyl)acrylamide]
- EC50 [1]: 121 nM
